Source: the supplement of paper PMC4862054

Legend:
BT-474 [1] = test: normalised viability (% of control), CellTiter-Blue; higher = more viable cells (100 = DMSO, 0 = benzethonium chloride kill control); settings: incubation time: 72 h
Protocol: (§1)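 DSRT, CellTiter-Blue viability, 72 h incubation. Signal is normalised to DMSO and benzethonium chloride controls. Value is the normalised response at dose 1.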

BT-549 [2] = test: as above; settings: incubation time: 72 h
Protocol: as §1

CAL-120 [3] = test: as above; settings: incubation time: 72 h
Protocol: as §1

CAL-148 [4] = test: as above; settings: incubation time: 72 h
Protocol: as §1

CAL-51 [5] = test: as above; settings: incubation time: 72 h
Protocol: as §1

CAL-85-1 [6] = test: as above; settings: incubation time: 72 h
Protocol: as §1

DU-4475 [7] = test: as above; settings: incubation time: 72 h
Protocol: as §1

HCC1143 [8] = test: as above; settings: incubation time: 72 h
Protocol: as §1

HCC1599 [9] = test: as above; settings: incubation time: 72 h
Protocol: as §1

HCC1937 [10] = test: as above; settings: incubation time: 72 h
Protocol: as §1

HDQ-P1 [11] = test: as above; settings: incubation time: 72 h
Protocol: as §1

Hs578T [12] = test: as above; settings: incubation time: 72 h
Protocol: as §1

MDA-MB-231 [13] = test: as above; settings: incubation time: 72 h
Protocol: as §1

MDA-MB-436 [14] = test: as above; settings: incubation time: 72 h
Protocol: as §1

MDA-MB-453 [15] = test: as above; settings: incubation time: 72 h
Protocol: as §1

MDA-MB-468 [16] = test: as above; settings: incubation time: 72 h
Protocol: as §1

MFM-223 [17] = test: as above; settings: incubation time: 72 h
Protocol: as §1

SK-BR-3 [18] = test: as above; settings: incubation time: 72 h
Protocol: as §1

BT-474 [19] = test: normalised viability (% of control), CellTiter-Blue; higher = more viable cells (about 100 = DMSO control); settings: 100 nM; incubation time: 72 h
Protocol: (§2)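 DSRT, CellTiter-Blue viability, 72 h incubation. Signal is normalised to DMSO and benzethonium chloride controls. Value is the normalised response at dose 3.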

BT-549 [20] = test: as above; settings: 100 nM; incubation time: 72 h
Protocol: as §2

CAL-120 [21] = test: as above; settings: 100 nM; incubation time: 72 h
Protocol: as §2

CAL-148 [22] = test: as above; settings: 10 nM; incubation time: 72 h
Protocol: as §2

CAL-51 [23] = test: as above; settings: 10 nM; incubation time: 72 h
Protocol: as §2

CAL-85-1 [24] = test: as above; settings: 10 nM; incubation time: 72 h
Protocol: as §2

DU-4475 [25] = test: as above; settings: 10 nM; incubation time: 72 h
Protocol: as §2

HCC1143 [26] = test: as above; settings: 100 nM; incubation time: 72 h
Protocol: as §2

HCC1599 [27] = test: as above; settings: 100 nM; incubation time: 72 h
Protocol: as §2

HCC1937 [28] = test: as above; settings: 100 nM; incubation time: 72 h
Protocol: as §2

HDQ-P1 [29] = test: as above; settings: 10 nM; incubation time: 72 h
Protocol: as §2

Hs578T [30] = test: as above; settings: 100 nM; incubation time: 72 h
Protocol: as §2

MDA-MB-231 [31] = test: as above; settings: 100 nM; incubation time: 72 h
Protocol: as §2

MDA-MB-436 [32] = test: as above; settings: 100 nM; incubation time: 72 h
Protocol: as §2

MDA-MB-453 [33] = test: as above; settings: 10 nM; incubation time: 72 h
Protocol: as §2

MDA-MB-468 [34] = test: as above; settings: 100 nM; incubation time: 72 h
Protocol: as §2

MFM-223 [35] = test: as above; settings: 100 nM; incubation time: 72 h
Protocol: as §2

SK-BR-3 [36] = test: as above; settings: 100 nM; incubation time: 72 h
Protocol: as §2

BT-474 [37] = test: normalised viability (% of control), CellTiter-Blue; higher = more viable cells (about 100 = DMSO control); settings: incubation time: 72 h
Procedure, shortened: (§3)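 384-well plates were pre-loaded with compound in 5 µl medium before 20 µl of breast cancer cell suspension was seeded. Following 72 h incubation, 2.5 µl CellTiter-Blue reagent was added for 2 h at 37 °C. Fluorescence was read at 560/590 nm and plates were normalised to vehicle (100) and a positive kill control (0), checked by Z'-factor. Normalised viability is reported at a single listed concentration of the series.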

BT-549 [38] = test: as above; settings: incubation time: 72 h
Procedure, shortened: as §3

CAL-120 [39] = test: as above; settings: incubation time: 72 h
Procedure, shortened: as §3

CAL-148 [40] = test: as above; settings: incubation time: 72 h
Procedure, shortened: as §3

CAL-51 [41] = test: as above; settings: incubation time: 72 h
Procedure, shortened: as §3

CAL-85-1 [42] = test: as above; settings: incubation time: 72 h
Procedure, shortened: as §3

DU-4475 [43] = test: as above; settings: incubation time: 72 h
Procedure, shortened: as §3

HCC1143 [44] = test: as above; settings: incubation time: 72 h
Procedure, shortened: as §3

HCC1599 [45] = test: as above; settings: incubation time: 72 h
Procedure, shortened: as §3

HCC1937 [46] = test: as above; settings: incubation time: 72 h
Procedure, shortened: as §3

HDQ-P1 [47] = test: as above; settings: incubation time: 72 h
Procedure, shortened: as §3

Hs578T [48] = test: as above; settings: incubation time: 72 h
Procedure, shortened: as §3

MDA-MB-231 [49] = test: as above; settings: incubation time: 72 h
Procedure, shortened: as §3

MDA-MB-436 [50] = test: as above; settings: incubation time: 72 h
Procedure, shortened: as §3

MDA-MB-453 [51] = test: as above; settings: incubation time: 72 h
Procedure, shortened: as §3

MDA-MB-468 [52] = test: as above; settings: incubation time: 72 h
Procedure, shortened: as §3

MFM-223 [53] = test: as above; settings: incubation time: 72 h
Procedure, shortened: as §3

SK-BR-3 [54] = test: as above; settings: incubation time: 72 h
Procedure, shortened: as §3

## O=P(O)(NCCCl)NCCCl [Ifosfamide mustard] (1 nM)
BT-474 [1]
  normalised viability: 113%
BT-549 [2]
  normalised viability: 102%
CAL-120 [3]
  normalised viability: 82.2%
CAL-148 [4]
  normalised viability: 111%
CAL-51 [5]
  normalised viability: 108%
CAL-85-1 [6]
  normalised viability: 85.5%
DU-4475 [7]
  normalised viability: 106%
HCC1143 [8]
  normalised viability: 97.4%
HCC1599 [9]
  normalised viability: 109%
HCC1937 [10]
  normalised viability: 92.3%
HDQ-P1 [11]
  normalised viability: 88.6%
Hs578T [12]
  normalised viability: 116%
MDA-MB-231 [13]
  normalised viability: 101%
MDA-MB-436 [14]
  normalised viability: 110%
MDA-MB-453 [15]
  normalised viability: 109%
MDA-MB-468 [16]
  normalised viability: 101%
MFM-223 [17]
  normalised viability: 94.9%
SK-BR-3 [18]
  normalised viability: 91.8%

## c1ccc(C2CN3CCSC3=N2)cc1 (stereo not drawn) [Tetramisole] (1 nM)
BT-474 [1]
  normalised viability: 80.2%
BT-549 [2]
  normalised viability: 97.8%
CAL-120 [3]
  normalised viability: 118%
CAL-148 [4]
  normalised viability: 117%
CAL-51 [5]
  normalised viability: 91.6%
CAL-85-1 [6]
  normalised viability: 96.5%
DU-4475 [7]
  normalised viability: 83%
HCC1143 [8]
  normalised viability: 107%
HCC1599 [9]
  normalised viability: 95.3%
HCC1937 [10]
  normalised viability: 94.3%
HDQ-P1 [11]
  normalised viability: 126%
Hs578T [12]
  normalised viability: 110%
MDA-MB-231 [13]
  normalised viability: 99.2%
MDA-MB-436 [14]
  normalised viability: 102%
MDA-MB-453 [15]
  normalised viability: 106%
MDA-MB-468 [16]
  normalised viability: 112%
MFM-223 [17]
  normalised viability: 98.5%
SK-BR-3 [18]
  normalised viability: 116%

## COC(=O)C[C@](O)(CCCC(C)(C)O)C(=O)O[C@@H]1C(OC)=C[C@]23CCCN2CCc2cc4c(cc2[C@H]13)OCO4 [Omacetaxine mepesuccinate]
BT-474 [19]
  normalised viability: 54.8%
BT-549 [20]
  normalised viability: 19.2%
CAL-120 [21]
  normalised viability: 15.1%
CAL-148 [22]
  normalised viability: 67.6%
CAL-51 [23]
  normalised viability: 92.8%
CAL-85-1 [24]
  normalised viability: 79.7%
DU-4475 [25]
  normalised viability: 25.1%
HCC1143 [26]
  normalised viability: 37.7%
HCC1599 [27]
  normalised viability: 29.4%
HCC1937 [28]
  normalised viability: 14.9%
HDQ-P1 [29]
  normalised viability: 73%
Hs578T [30]
  normalised viability: 6.8%
MDA-MB-231 [31]
  normalised viability: 22.1%
MDA-MB-436 [32]
  normalised viability: 21.4%
MDA-MB-453 [33]
  normalised viability: 90.2%
MDA-MB-468 [34]
  normalised viability: 17.7%
MFM-223 [35]
  normalised viability: 31%
SK-BR-3 [36]
  normalised viability: 18.3%
BT-474 [37]; 10 nM
  normalised viability: 118%
BT-474 [37]; 1000 nM
  normalised viability: 23%
BT-474 [37]; 10000 nM
  normalised viability: 13.3%
BT-549 [38]; 10 nM
  normalised viability: 87.2%
BT-549 [38]; 1000 nM
  normalised viability: 7.63%
BT-549 [38]; 10000 nM
  normalised viability: 4.5%
CAL-120 [39]; 10 nM
  normalised viability: 69.2%
CAL-120 [39]; 1000 nM
  normalised viability: 7.92%
CAL-120 [39]; 10000 nM
  normalised viability: 5.91%
CAL-148 [40]; 3 nM
  normalised viability: 96.3%
CAL-148 [40]; 30 nM
  normalised viability: 26%
CAL-148 [40]; 100 nM
  normalised viability: 14.8%
CAL-51 [41]; 3 nM
  normalised viability: 101%
CAL-51 [41]; 30 nM
  normalised viability: 31.6%
CAL-51 [41]; 100 nM
  normalised viability: 11.8%
CAL-85-1 [42]; 3 nM
  normalised viability: 86.8%
CAL-85-1 [42]; 30 nM
  normalised viability: 25.3%
CAL-85-1 [42]; 100 nM
  normalised viability: 9.04%
DU-4475 [43]; 3 nM
  normalised viability: 81%
DU-4475 [43]; 30 nM
  normalised viability: 2.2%
DU-4475 [43]; 100 nM
  normalised viability: 4.43%
HCC1143 [44]; 10 nM
  normalised viability: 87.2%
HCC1143 [44]; 1000 nM
  normalised viability: 14.2%
HCC1143 [44]; 10000 nM
  normalised viability: 11%
HCC1599 [45]; 10 nM
  normalised viability: 68.9%
HCC1599 [45]; 1000 nM
  normalised viability: 17%
HCC1599 [45]; 10000 nM
  normalised viability: 12.9%
HCC1937 [46]; 10 nM
  normalised viability: 55.9%
HCC1937 [46]; 1000 nM
  normalised viability: 13.9%
HCC1937 [46]; 10000 nM
  normalised viability: 14.3%
HDQ-P1 [47]; 3 nM
  normalised viability: 92.5%
HDQ-P1 [47]; 30 nM
  normalised viability: 24.6%
HDQ-P1 [47]; 100 nM
  normalised viability: 14.9%
Hs578T [48]; 10 nM
  normalised viability: 111%
Hs578T [48]; 1000 nM
  normalised viability: 1.46%
Hs578T [48]; 10000 nM
  normalised viability: 1.1%
MDA-MB-231 [49]; 10 nM
  normalised viability: 87.9%
MDA-MB-231 [49]; 1000 nM
  normalised viability: 6.79%
MDA-MB-231 [49]; 10000 nM
  normalised viability: 3.89%
MDA-MB-436 [50]; 10 nM
  normalised viability: 88.5%
MDA-MB-436 [50]; 1000 nM
  normalised viability: 19%
MDA-MB-436 [50]; 10000 nM
  normalised viability: 11.7%
MDA-MB-453 [51]; 3 nM
  normalised viability: 109%
MDA-MB-453 [51]; 30 nM
  normalised viability: 44.5%
MDA-MB-453 [51]; 100 nM
  normalised viability: 21.4%
MDA-MB-468 [52]; 10 nM
  normalised viability: 90.2%
MDA-MB-468 [52]; 1000 nM
  normalised viability: 4.25%
MDA-MB-468 [52]; 10000 nM
  normalised viability: 3.02%
MFM-223 [53]; 10 nM
  normalised viability: 88.3%
MFM-223 [53]; 1000 nM
  normalised viability: 8.87%
MFM-223 [53]; 10000 nM
  normalised viability: 4.39%
SK-BR-3 [54]; 10 nM
  normalised viability: 89.4%
SK-BR-3 [54]; 1000 nM
  normalised viability: 6.71%
SK-BR-3 [54]; 10000 nM
  normalised viability: 3.15%
